Experimental data as given in paper PMC8471306, “Chemical Changes of Hydroperoxy-, Epoxy-, Keto- and Hydroxy-Model Lipids under Simulated Gastric Conditions” (Foods, 2021).
Where “and” joins values, the source holds several entries; their conditions need not be identical. Identical values can stand only once. Entries after “also recorded” stand apart in the source; their conditions may differ.

Columns and labels:
[1] = rat, in vivo; cited from earlier work
[2] = In vitro simulated gastric digestion of model lipid emulsions in SGF, quantitation by GC-FID; type: in vitro ADME
Procedure: Emulsions of model lipid compounds were prepared in a simulated gastric fluid (SGF) formulated as described in the United States Pharmacopeia. SGF contained 3.2% w/v pepsin in 0.03 M NaCl and 0.1 M HCl (pH 1.2). Different sample solutions of model lipid compounds in SGF were prepared and methyl C21:0 was added as an internal standard (IS) for quantitative purposes. Homogenization was performed in an Omnimixer (Sorvall, Newton, PA, USA) at 10,000 rpm for 5 min at 1-min intervals, as described elsewhere. […] Samples of 1, 2, 3 and 4 mL (~16 μmol mL^−1 of each compound) were used. • - Two methyl 9,10-epoxysteatate emulsions, i.e., 5 and 15 mg mL^−1, both with 10 mg mL^−1 of the IS, in SGF. Samples of 1, 2, 3 and 4 mL (16 and 46 μmol mL^−1) were used. • - Three methyl linoleate hydroperoxides emulsions, i.e., 5, 7.5 and 10 mg mL^−1, with 1, 1.5 and 2 mg mL^−1 of the IS, respectively. Additional methyl hydroperoxides emulsions at the same concentrations were prepared adjusting the pH to 3.0 and 6.6 with 1 M NaHCO3. Samples of 4 mL (15.3, 23.0 and 30.6 μmol mL^−1) were used.
Gastric digestion was simulated using a classical in vitro model. Emulsions of lipid model compounds prepared as described in Section 2.3. were used for digestion assays immediately after preparation. Triplicate emulsions were incubated in a shaking water bath for 3 h at 37 °C/100 rpm.
Lipids were thoroughly extracted with 1:1 hexane:diethyl ether after vigorous shaking in a vortex and centrifugation at 2000 rpm. Hexane and diethyl ether have been previously used for lipid extraction of oil-in-water emulsions. The extraction procedure was repeated three times and the organic extracts were pooled and washed with distilled water. After filtration through anhydrous sodium sulfate, the solvent was evaporated in a rotatory evaporator under reduced pressure at room temperature and the extracted lipids were dried using a stream of nitrogen.
Initial and digested samples were analyzed by gas-liquid chromatography using an HP 6890 Series chromatograph (Hewlett-Packard, Avondale, PA, USA) equipped with a split-splitless injector operating in the split mode with a 40:1 split ratio at 250 °C, a J&W DB-Wax fused-silica capillary column, 60 m × 0.25 mm I.D., film thickness 0.25 μm (J&W Scientific, Folsom, CA, USA) and a flame ionization detector that was used at 250 °C. The analyses were run using hydrogen as carrier gas at 1 mL min^−1 and under isothermal conditions using 230 °C for 25 min. Injections were carried out automatically using a 6890 Series autosampler (Agilent Technologies, Karlsruhe, Germany). A volume of 1 μL of sample dissolved in diethyl ether (~5 mg mL^−1) was analyzed.

[3] = equimolar mixture, 16 μmol mL^−1 each, sample volume 1 mL, SGF pH 1.2, 3 h 37 °C
[4] = equimolar mixture, 16 μmol mL^−1 each, sample volume 2 mL, SGF pH 1.2, 3 h 37 °C
[5] = equimolar mixture, 16 μmol mL^−1 each, sample volume 3 mL, SGF pH 1.2, 3 h 37 °C
[6] = equimolar mixture, 16 μmol mL^−1 each, sample volume 4 mL, SGF pH 1.2, 3 h 37 °C
[7] = tested alone, initial 15.79 μmol mL^−1, sample volume 1 mL, SGF pH 1.2
[8] = tested alone, initial 15.79 μmol mL^−1, sample volume 2 mL, SGF pH 1.2
[9] = tested alone, initial 15.79 μmol mL^−1, sample volume 3 mL, SGF pH 1.2
[10] = tested alone, initial 15.79 μmol mL^−1, sample volume 4 mL, SGF pH 1.2
[11] = tested alone, initial 46.03 μmol mL^−1, sample volume 1 mL, SGF pH 1.2
[12] = tested alone, initial 46.03 μmol mL^−1, sample volume 2 mL, SGF pH 1.2
[13] = tested alone, initial 46.03 μmol mL^−1, sample volume 3 mL, SGF pH 1.2
[14] = tested alone, initial 46.03 μmol mL^−1, sample volume 4 mL, SGF pH 1.2

Compound: linoleic acid hydroperoxides
- Share decomposed to a variety of compounds in the stomach [1]: about 70%

Compound: CCCCCCC(O)CCCCCCCCCCC(=O)OC (centres unmarked) [methyl 12-hydroxystearate]
- Final Concentration [2, 3]: 15.92 ± 0.40 c μmol mL^−1
- Final Concentration [2, 4]: 15.45 ± 1.03 c μmol mL^−1
- Final Concentration [2, 5]: 16.13 ± 0.39 c μmol mL^−1
- Final Concentration [2, 6]: 15.51 ± 1.13 c μmol mL^−1

Compound: CCCCCCC(=O)CCCCCCCCCCC(=O)OC [methyl 12-oxostearate]
- Change after simulated gastric digestion (in words) ([2]; equimolar mixture, 16 μmol mL^−1 each, 1-4 mL, SGF pH 1.2): remained unaltered; also recorded: remained at the starting levels
- Final Concentration [2, 3]: 16.11 ± 0.21 c μmol mL^−1
- Final Concentration [2, 4]: 15.80 ± 0.37 c μmol mL^−1
- Final Concentration [2, 5]: 15.88 ± 0.73 c μmol mL^−1
- Final Concentration [2, 6]: 16.15 ± 0.58 c μmol mL^−1

Compound: CCCCCCCCC1OC1CCCCCCCC(=O)OC (stereo not drawn) [methyl 9,10-epoxystearate, Methyl trans-9,10-epoxystearate]
- Losses after in vitro gastric digestion, range over all samples ([2]; all concentrations and sample volumes tested, SGF pH 1.2): 17.8–58.8%
- Final Concentration [2, 3]: 7.52 ± 0.73 a μmol mL^−1
- Loss % after Digestion [2, 3]: 52.7 ± 4.6 B %
- Final Concentration [2, 4]: 7.79 ± 0.65 ab μmol mL^−1
- Loss % after Digestion [2, 4]: 51.3 ± 4.0 AB %
- Final Concentration [2, 5]: 8.89 ± 0.43 b μmol mL^−1
- Loss % after Digestion [2, 5]: 44.4 ± 2.7 A %
- Final Concentration [2, 6]: 9.55 ± 0.40 b μmol mL^−1
- Loss % after Digestion [2, 6]: 40.3 ± 2.5 A %
- Final [9,10-Epoxystearate] [2, 7]: 6.50 ± 1.07 a μmol mL^−1
- Loss % after Digestion [2, 7]: 58.8 ± 6.8 D %
- Final [9,10-Epoxystearate] [2, 8]: 7.20 ± 0.80 ab μmol mL^−1
- Loss % after Digestion [2, 8]: 54.4 ± 5.0 CD %
- Final [9,10-Epoxystearate] [2, 9]: 8.00 ± 0.48 ab μmol mL^−1
- Loss % after Digestion [2, 9]: 49.3 ± 3.0 CD %
- Final [9,10-Epoxystearate] [2, 10]: 8.97 ± 0.60 b μmol mL^−1
- Loss % after Digestion [2, 10]: 43.2 ± 3.8 BC %
- Final [9,10-Epoxystearate] [2, 11]: 26.16 ± 2.24 a μmol mL^−1
- Loss % after Digestion [2, 11]: 43.2% and 43.2 ± 4.9 BC %
- Final [9,10-Epoxystearate] [2, 12]: 30.53 ± 1.48 a μmol mL^−1
- Loss % after Digestion [2, 12]: 33.7 ± 3.2 B %
- Final [9,10-Epoxystearate] [2, 13]: 35.06 ± 0.81 b μmol mL^−1
- Loss % after Digestion [2, 13]: 23.8 ± 1.8 A %
- Final [9,10-Epoxystearate] [2, 14]: 37.82 ± 1.96 b μmol mL^−1
- Loss % after Digestion [2, 14]: 17.8% and 17.8 ± 4.3 A %
